Target: Short transient receptor potential channel 6 (Mus musculus) (UniProt Q61143)
Test: TRPC6 inhibitor potency, dose response, cell-based, mouse TRPC6, HEK293, membrane potential (AID 2696)
Conditions: TRPC6-expressing HEK293 cells, membrane potential dye fluorescence, acetylcholine-stimulated

Short transient receptor potential channel 6 (Mus musculus), sequence (Q61143 whole entry, looked up): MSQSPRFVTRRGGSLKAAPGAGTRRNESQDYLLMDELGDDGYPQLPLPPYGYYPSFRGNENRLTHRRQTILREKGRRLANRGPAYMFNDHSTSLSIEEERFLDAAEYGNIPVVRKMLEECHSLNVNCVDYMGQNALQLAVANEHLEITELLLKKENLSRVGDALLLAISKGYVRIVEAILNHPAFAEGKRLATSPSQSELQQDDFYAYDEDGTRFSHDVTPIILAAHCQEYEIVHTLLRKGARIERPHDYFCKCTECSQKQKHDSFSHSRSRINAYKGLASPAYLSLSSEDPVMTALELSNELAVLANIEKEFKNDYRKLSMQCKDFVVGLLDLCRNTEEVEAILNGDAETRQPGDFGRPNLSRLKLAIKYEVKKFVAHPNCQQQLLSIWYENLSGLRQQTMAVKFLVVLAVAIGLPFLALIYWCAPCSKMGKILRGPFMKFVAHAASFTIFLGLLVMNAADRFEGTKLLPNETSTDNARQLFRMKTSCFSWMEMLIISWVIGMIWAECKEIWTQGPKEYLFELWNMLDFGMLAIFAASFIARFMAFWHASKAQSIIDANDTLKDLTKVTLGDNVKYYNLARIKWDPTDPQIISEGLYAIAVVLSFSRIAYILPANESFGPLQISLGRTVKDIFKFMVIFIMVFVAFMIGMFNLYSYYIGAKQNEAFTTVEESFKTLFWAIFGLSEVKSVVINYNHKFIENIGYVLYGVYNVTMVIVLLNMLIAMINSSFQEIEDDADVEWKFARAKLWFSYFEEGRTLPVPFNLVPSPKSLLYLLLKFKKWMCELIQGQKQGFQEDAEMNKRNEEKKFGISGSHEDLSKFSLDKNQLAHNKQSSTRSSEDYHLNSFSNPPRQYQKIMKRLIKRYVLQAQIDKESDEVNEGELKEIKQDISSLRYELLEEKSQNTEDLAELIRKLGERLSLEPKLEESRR

IC50 [µM]	Structure (SMILES)
50.1	CN(C)CCN(C(=O)c1ccc2c(c1)OCCO2)c1nc2c(Cl)cccc2s1
70.8	Cc1cccc2sc(N(CCCN(C)C)C(=O)c3ccc(Cl)s3)nc12
44.7	CC(C)(C)NCc1cc(Br)ccc1OC1CCCC1
39.8	COc1cc(/C=N/Nc2nc(N3CCCC3)nc(N3CCCC3)n2)ccc1OCc1ccccc1F
79.4	COC(=O)c1ccc(NC(=O)N2CCCC(C(=O)c3ccccc3OC)C2)cc1 (centres undefined)
70.8	COc1ccc(Nc2ccnc3ccccc23)cc1
39.8	S=c1[nH]nc(Cc2ccccc2)n1Cc1ccco1
44.7	CCCn1c(=N)c(C(=O)NC2CCCC2)cc2c(=O)n3cccc(C)c3nc21
28.2	C=C(C)c1cccc(C(C)(C)NC(=O)NCCN(CC)CC)c1
17.8	Cc1ccc(N2C(=O)CSC2c2c(F)cccc2Cl)cc1 (centres undefined)
15.8	CC(C)CC1CCCCC1OC(=O)C[N+]1(C)CCCCC1 (centres undefined)
17.8	CN(C)C(C)(C)/C=C/C(O)(c1ccccc1)c1ccccc1
3.16	CCN(CC)CCCOC(=O)C(c1ccccc1)c1ccccc1
14.1	COc1ccc(C2NC(=O)NC(O)(C(F)(F)F)C2C(=O)c2ccc(C)cc2)cc1 (centres undefined)
39.8	N#Cc1c(-n2cccc2/C=N/O)sc2c1CCCC2
39.8	Cc1c(CCOC(=O)C23CC4CC(CC(C4)C2)C3)sc[n+]1Cc1ccccc1
15.8	CC[N+](C)(CC)CCC/C(=N/O)C(O)(c1ccccc1)c1ccccc1
79.4	Cc1ccc(OCCCCCCN2CCNCC2)cc1
44.7	CCCCC(O)(CCN1CCOCC1)c1ccc(Cl)cc1 (centres undefined)
44.7	Fc1ccc([C@@H]2CCNC[C@H]2COc2ccc3c(c2)OCO3)cc1
44.7	Cc1ccc(CNc2ccc3c(c2)ncn3C(C)(C)C)cc1
79.4	Nc1ccc(C(=O)OCc2nc3ccccc3s2)cc1

IC50 [µM]	Structure (SMILES)
79.4	COc1ccc(C(=O)C2CCCN(Cc3cccn3-c3ccccn3)C2)cc1F (centres undefined)
50.1	COc1ccc(-n2nc(C(=O)c3cccs3)cc(-c3nc4ccccc4[nH]3)c2=N)cc1
12.6	CN(C)CCOC1c2ccccc2CSc2ccccc21 (centres undefined)
3.98	Cc1ccc2c(c1)NC(=O)C(CC(=O)Nc1ccc(CN3CCC(C)CC3)cc1)O2 (centres undefined)
39.8	OC(C#CCN1CCCCCC1)(c1ccccc1)c1cccnc1 (centres undefined)
1.58	CC[N+](C)(C)CC/C=C1/c2ccccc2Sc2ccc(Cl)cc21
0.08	CN1[C@@H]2CC[C@H]1CC(OC(=O)C(CO)c1ccccc1)C2 (some centres undefined)
35.5	O=C(NNS(=O)(=O)c1ccc(Cl)cc1)C1CCN(Cc2ccccc2)CC1
0.89	C[N+]1(C)CCCC(OC(=O)C(O)(c2ccccc2)c2ccccc2)C1 (centres undefined)
50.1	CN(C)CCCN1c2ccccc2Sc2ccc(C(F)(F)F)cc21
50.1	CCOC(=O)c1ccc(NC(=S)NCc2ccco2)cc1
0.89	CN(CCOC(=O)C1c2ccccc2Oc2ccccc21)C(C)(C)C
79.4	CCN(CC)CCNC(=O)c1nn(-c2ccc(C)cc2)c(=O)c2c1c1ccccc1n2C
11.2	Cc1cc(-n2cccn2)ccc1CN1CCN(CC(C)C)C(CCO)C1 (centres undefined)
70.8	Nc1c2c(nc3ccn(Cc4ccccc4)c(=O)c13)CCC2
44.7	O=C(NCC(=O)N(c1ccc2c(c1)OCCO2)C(C(=O)NC1CCCC1)c1ccco1)c1ccco1 (centres undefined)
39.8	Cc1onc(-c2ccccc2)c1C(=O)N/N=C/c1ccc([N+](=O)[O-])s1
15.8	CN1CCCC(C#CC(O)(c2ccccc2)c2ccccc2)C1 (centres undefined)
14.1	CCN1C(=O)/C(=C\N2CCCCCC2)SC1=S
35.5	O=C(Nc1ccccc1)Nc1ncc([N+](=O)[O-])s1
63.1	O=C(CCCOc1ccc(Cl)cc1Cl)N1CCN(c2ccccn2)CC1
35.5	Cc1ccc(SC(=O)c2c([N+](=O)[O-])c(C)nn2C)cc1

IC50 [µM]	Structure (SMILES)
19.9	COc1ccccc1C(=O)NCC1CCN(c2ccc(S(=O)(=O)N3CCOCC3)cc2)CC1
3.98	OC(C#CCN1CCCC1)(c1ccccc1)c1ccccc1
31.6	COC(=O)c1ccc(Nc2cc(C)nc3ccc(C)cc23)cc1
25.1	O=[N+]([O-])c1ccc(N=Nc2c(Cl)cc(O)cc2Cl)cc1
70.8	CCCCCOC(=O)c1ccc(NC(=O)c2ccco2)cc1
50.1	COc1cc2c(cc1O)CC[n+]1cc3c(OC)c(OC)ccc3cc1-2
39.8	COC(=O)c1ccc(NC(=O)c2snnc2-c2ccccc2)cc1
50.1	Cc1cc(N(CCO)CCO)ccc1N=Nc1cc(F)ccc1F
79.4	CCN(CC)CCCNc1nc(-c2ccccc2)nc2ccccc12
70.8	O=C(CNCCC1=CCCCC1)Nc1ccc(N2CCCCCC2)cc1
70.8	Cc1c(CCCN)c2ccccc2n1Cc1ccccc1
44.7	COC(=O)c1[nH]c2ccc(Br)cc2c1NC(=O)CN1CCN(C2CCCCC2)CC1
14.1	Cc1c(C(=O)OC(C)CCN(C)C)oc2ccccc12 (centres undefined)
1.78	CCN(CC)CCOC(=O)C1c2ccccc2Oc2ccccc21
39.8	COc1ccc(N2CCN(S(=O)(=O)CCNC(=O)COc3ccccc3C)CC2)cc1
63.1	COc1cccc(Nc2nc(NCCO)c3ccccc3n2)c1
39.8	Cc1ccc(C23CC4CC(CC(CN)(C4)C2)C3)cc1
8.91	O=C(OCCN1CCCCC1)C1(c2ccccc2)CCCC1
39.8	OC(C#CCCN1CCCCC1)(c1ccccc1)c1ccccc1
79.4	O=C1Nc2ccccc2OC1CC(=O)N1CCN(c2cccc(C(F)(F)F)c2)CC1 (centres undefined)
50.1	CCOC(=O)C1CCCN(C(=O)c2cc3c(C)nc4ccccc4c3o2)C1 (centres undefined)
50.1	CCCc1cc(=S)n2c([nH]c3ccccc32)c1C#N

IC50 [µM]	Structure (SMILES)
11.2	CCN(CC)CCC#CC(O)(c1ccccc1)C1CCCCC1 (centres undefined)
50.1	CCCc1cc(-c2[nH]ncc2-c2ccc3c(c2)OCCCO3)c(O)cc1O
70.8	Cc1cccc2sc(N(CCCN(C)C)C(=O)c3ccco3)nc12
12.6	CC[N+]1(C)CCC(=C2c3ccccc3CC(=O)c3sccc32)CC1 (centres undefined)
79.4	Cc1cc(C)n(-c2nc(SCCN(C)C)c3c4c(sc3n2)COC(C)(C)C4)n1
44.7	COc1cc(/C=N/Nc2nncc3ccccc23)cc(OC)c1OC
79.4	Cc1nnc(-c2ccccc2)c(=O)n1/N=C/c1c(O)ccc2ccccc12
50.1	COC(=O)c1[nH]c2ccccc2c1NC(=O)CN1CCN(C/C=C/c2ccccc2)CC1
44.7	Cc1c(C)n(Cc2ccccc2)c2ccc(C(=O)OCCCN(C)C)cc12
25.1	O=c1cc(C(F)(F)F)[nH]c2c(C(F)(F)F)cccc12
50.1	CCCN(CC1CC1)C(=O)CCc1nnc(CCc2c[nH]c3ccccc23)o1
3.55	OC(C#CCCN1CCCCC1)(c1ccccc1)C1CCCCC1 (centres undefined)
44.7	NCCCC(=O)N1c2ccccc2Sc2ccccc21
44.7	CN(C)CCOC(=O)C1(c2ccccc2)CCCC1
31.6	N#CC(c1cccc(Cl)c1)c1ccc2c(C(F)(F)F)cc(C(F)(F)F)nc2n1 (centres undefined)
19.9	CCOC(=O)N1CCN(S(=O)(=O)c2cc(Br)cnc2N)CC1
44.7	NCCCn1c(C(=O)c2ccc(Cl)cc2)c2ccc(C(F)(F)F)cc2[n+]1[O-]
63.1	CCOC(=O)c1ccc(NC(=O)CC2COc3ccccc3O2)cc1 (centres undefined)
15.8	C[N+]1(CCOC(=O)C2(c3ccccc3)CCCC2)CCCCC1
44.7	O=C(c1ccccc1)N1CCN(C2C3CC4CC(C3)CC2C4)CC1 (centres undefined)
50.1	Cc1cccc(NS(=O)(=O)c2cccc(C(=O)N3CCN(c4ccccn4)CC3)c2)c1
50.1	CCn1c2c(c(=N)c3ccccc31)CCC2

IC50 [µM]	Structure (SMILES)
44.7	C[n+]1ccccc1/C=C/c1ccc(F)c(F)c1
1.41	O=C(NNS(=O)(=O)c1ccc2ccccc2c1)C1CCN(Cc2ccccc2)CC1
19.9	Cc1ccc(C(O)(CCN2CCCCC2)c2ccccc2)cc1 (centres undefined)
15.8	Oc1ccc(CN2CCc3ccccc3C2)c2cccnc12
44.7	CCOC(=O)N1CCC(N2Cc3cccc(C(=O)Nc4ccc(CC)cc4)c3C2=O)CC1
17.8	S=C1N(c2ccccc2)C(c2ccc(Cl)cc2)N2CCCN12 (centres undefined)
11.2	CN1CCN(c2ncccc2S(=O)(=O)N2CCCCC2)CC1
3.55	CCCC(CCC)C(=O)OC1C[C@H]2CC[C@@H](C1)[N+]2(C)C (some centres undefined)
56.2	CN(C)CCNS(=O)(=O)c1ccc(N2CCN(c3ccc(F)cc3)CC2)c([N+](=O)[O-])c1
8.91	Cc1nnsc1C(=O)N/N=C/c1ccc2ccccc2c1O
0.03	C[N+]1(C)[C@@H]2CC(OC(=O)[C@H](CO)c3ccccc3)C[C@H]1[C@@H]1O[C@@H]12 (some centres undefined)
70.8	CCCn1c(=N)n(CC(=O)c2ccc(Cl)cc2)c2ccccc21
1.58	CC(=O)OCC[N+](C)(C)C
44.7	CC1CCN(CC(C)CNC(=O)c2cc(-c3ccccn3)nc3ccccc23)CC1 (centres undefined)
70.8	Cn1c(=O)c2c(nc(SCCN3CCCCC3)n2Cc2ccccc2)n(C)c1=O
0.05	CN1CCCN=C1COC(=O)C(O)(c1ccccc1)C1CCCCC1 (centres undefined)
12.6	CCCCCC[N+](C)(C)CC/C=C1/c2ccccc2Sc2ccc(Cl)cc21
70.8	Cc1ccc(Oc2ccc(NC(=O)Cn3ccsc3=N)cc2)cc1
28.2	c1ccc2c(c1)CCc1ccccc1C2=C1CCNCC1
28.2	CSCc1cc(N(C)c2ccccc2)nc(-c2ccccn2)n1

Structure (SMILES)	IC50 [µM]
CCN(CC)CCCOC(=O)C(OC(C)C)(c1ccccc1)c1ccccc1	3.98
C[N+]1(C)CCC(OC(=O)C(c2ccccc2)c2ccccc2)CC1	0.28
CCCC(CCC)C(=O)OC[N+](C)(C)CCOC(=O)C(O)(c1ccccc1)C1CCCC1 (centres undefined)	1.78
C[N+]12CCC(CC1)C(=C(c1ccccc1)c1ccccc1)C2	4.47
CN1CCC(OC(=O)C2c3ccccc3Oc3ccccc32)CC1	0.71
C[N+](C)(N)CCOC(=O)C(O)(c1ccccc1)C1CCCCC1 (centres undefined)	0.32
C[N+]1(C)C2CCC1CC(OC(=O)C(CO)c1ccccc1)C2 (centres undefined)	0.07
C#CC[N+]1(C)[C@@H]2CC[C@H]1CC(OC(=O)C(CO)c1ccccc1)C2 (some centres undefined)	0.28
c1ccc2c(c1)CC1CNCc3cccc(c31)S2 (centres undefined)	70.8
Cc1ccc(C[n+]2c(-c3ccc(C)cc3)cc(-c3ccc(C)cc3)cc2-c2ccc(C)cc2)cc1	79.4
CCCCCCCCCCCCn1ccc(=N)cc1	35.5

Reference: PubChem BioAssay AID2696 (Johns Hopkins Ion Channel Center, 2010)
